Earlier results as cited in patent publication US6087087A, “Treatment of hemoglobin with nitric oxide” (Yonetani; Takashi, priority 1998, dated 2000).
Where two headings read alike, the source gives them in different places.

Experiments:
[1] = test system: Hb (hemoglobin)
[2] = test system: blood of the rat; conditions: rat treated with nitroglycerin
[3] = test system: Hb in rats; conditions: nitroglycerin-induced

For nitric oxide [NO], the “affinity of NO for Hb relative to CO” value [1] is listed as > 10^3 fold and the “affinity of NO for Hb relative to CO” value ([1]; listed as nitric oxide) is listed as “more than a thousand-fold higher affinity”.

For `O=[N+]([O-])OCC(CO[N+](=O)[O-])O[N+](=O)[O-]` [nitroglycerin], the “right shift of the O2 binding curve of blood” value [2] is given as “approximately 10 torr” and the “α-nitrosylHb formed, of the total heme of Hb” value [3] is given as “less than 2%”.
